Laboratory results from ChEMBL document CHEMBL5214900, “Design, Synthesis, and Biological Evaluation of Membrane-Active Bakuchiol Derivatives as Effective Broad-Spectrum Antibacterial Agents” (J Med Chem, 2021).
Converted amounts (≈) assume the structure as drawn.

Legend:
[1] = Hemolytic activity in rabbit RBC measured after 1 hrs by multimode reader assay; assay type: toxicity, cell-based, Oryctolagus cuniculus, Erythrocyte; conditions: rabbit red blood cells (erythrocytes)
Staphylococcus aureus [2] = assay: Antibacterial activity against Staphylococcus aureus ATCC 29213 assessed as inhibition of bacterial growth incubated for 24 hrs by CLSI based broth dilution method; assay type: functional
Staphylococcus aureus [3] = assay: Antibacterial activity against methicillin-resistant Staphylococcus aureus NCTC10442 assessed as inhibition of bacterial growth incubated for 24 hrs by CLSI based broth dilution method; assay type: functional
Escherichia coli = assay: Antibacterial activity against Escherichia coli ATCC 25922 assessed as inhibition of bacterial growth incubated for 24 hrs by CLSI based broth dilution method; assay type: functional
Staphylococcus aureus [4] = assay: Antibacterial activity against methicillin-resistant Staphylococcus aureus N315 assessed as inhibition of bacterial growth incubated for 24 hrs by CLSI based broth dilution method; assay type: functional
Klebsiella pneumoniae [5] = assay: Antibacterial activity against Klebsiella pneumoniae ATCC 10031 assessed as inhibition of bacterial growth incubated for 24 hrs by CLSI based broth dilution method; assay type: functional
Klebsiella pneumoniae [6] = assay: Antibacterial activity against Klebsiella pneumoniae ATCC 14581 assessed as inhibition of bacterial growth incubated for 24 hrs by CLSI based broth dilution method; assay type: functional
Acinetobacter baumannii [7] = assay: Antibacterial activity against Acinetobacter baumannii R2889 assessed as inhibition of bacterial growth incubated for 24 hrs by CLSI based broth dilution method; assay type: functional
Acinetobacter baumannii [8] = assay: Antibacterial activity against Acinetobacter baumannii ATCC 17978 assessed as inhibition of bacterial growth incubated for 24 hrs by CLSI based broth dilution method; assay type: functional
Pseudomonas aeruginosa = assay: Antibacterial activity against Pseudomonas aeruginosa ATCC 9027 assessed as inhibition of bacterial growth incubated for 24 hrs by CLSI based broth dilution method; assay type: functional

SMILES	HC50 at 1 h [1]	MIC (Staphylococcus aureus [2])	MIC (Staphylococcus aureus [3])	MIC (Escherichia coli)	MIC (Staphylococcus aureus [4])	MIC (Klebsiella pneumoniae [5])	MIC (Klebsiella pneumoniae [6])	MIC (Acinetobacter baumannii [7])	MIC (Acinetobacter baumannii [8])	MIC (Pseudomonas aeruginosa)
C=C[C@@](C)(/C=C/c1ccc(OCCCCN(CC)CC)cc1)CCC=C(C)C	109 µg/mL	3.12 µg/mL (≈ 8.15 µM)	3.12 µg/mL (≈ 8.15 µM)	> 100 µg/mL	3.12 µg/mL (≈ 8.15 µM)	–	–	–	–	–
C=C[C@@](C)(/C=C/c1ccc(OCCCCCCBr)cc1)CCC=C(C)C	> 200 µg/mL	> 50 µg/mL	> 50 µg/mL	> 100 µg/mL	> 50 µg/mL	–	–	–	–	–
C=C[C@@](C)(/C=C/c1ccc(OCCCCNCC)cc1)CCC=C(C)C	21.8 µg/mL	1.56 µg/mL (≈ 4.39 µM)	1.56 µg/mL (≈ 4.39 µM)	12.5 µg/mL (≈ 35.2 µM)	0.78 µg/mL (≈ 2.19 µM)	–	–	–	–	–
C=C[C@@](C)(/C=C/c1ccc(OCCCCCCN(CC)CC)cc1)CCC=C(C)C	65 µg/mL	3.12 µg/mL (≈ 7.59 µM)	1.56 µg/mL (≈ 3.79 µM)	> 100 µg/mL	0.78 µg/mL (≈ 1.89 µM)	–	–	–	–	–
C=C[C@@](C)(/C=C/c1ccc(OCCCCCCCCCCBr)cc1)CCC=C(C)C	> 200 µg/mL	> 50 µg/mL	> 50 µg/mL	> 100 µg/mL	> 50 µg/mL	–	–	–	–	–
C=C[C@@](C)(/C=C/c1ccc(OCCCCN2CCN(CCCN(C)C)CC2)cc1)CCC=C(C)C	52 µg/mL	1.56 µg/mL (≈ 3.24 µM)	3.12 µg/mL (≈ 6.49 µM)	3.12 µg/mL (≈ 6.49 µM)	0.78 µg/mL (≈ 1.62 µM)	1.56 µg/mL (≈ 3.24 µM)	1.56 µg/mL (≈ 3.24 µM)	6.25 µg/mL (≈ 13 µM)	6.25 µg/mL (≈ 13 µM)	50 µg/mL (≈ 104 µM)
C=C[C@@](C)(/C=C/c1ccc(OCCCCCCCCBr)cc1)CCC=C(C)C	> 200 µg/mL	> 50 µg/mL	> 50 µg/mL	> 100 µg/mL	> 50 µg/mL	–	–	–	–	–
C=C[C@@](C)(/C=C/c1ccc(OCCCC[N+](C)(C)C)cc1)CCC=C(C)C.[I-]	34.2 µg/mL	0.78 µg/mL	0.78 µg/mL	6.25 µg/mL	0.78 µg/mL	–	–	–	–	–
C=C[C@@](C)(/C=C/c1ccc(O)cc1)CCC=C(C)C [BAKUCHIOL]	89.7 µg/mL	6.25 µg/mL (≈ 24.4 µM)	3.12 µg/mL (≈ 12.2 µM)	> 100 µg/mL	3.12 µg/mL (≈ 12.2 µM)	12.5 µg/mL (≈ 48.8 µM)	> 50 µg/mL	> 50 µg/mL	> 50 µg/mL	> 50 µg/mL
C=C[C@@](C)(/C=C/c1ccc(OCCCCNCCCCCCCC)cc1)CCC=C(C)C	> 200 µg/mL	6.25 µg/mL (≈ 14.2 µM)	3.12 µg/mL (≈ 7.11 µM)	> 100 µg/mL	1.56 µg/mL (≈ 3.55 µM)	–	–	–	–	–
C=C[C@@](C)(/C=C/c1ccc(OCCCCN(C)CCCN(C)C)cc1)CCC=C(C)C	32.5 µg/mL	1.56 µg/mL (≈ 3.66 µM)	3.12 µg/mL (≈ 7.32 µM)	3.12 µg/mL (≈ 7.32 µM)	1.56 µg/mL (≈ 3.66 µM)	1.56 µg/mL (≈ 3.66 µM)	1.56 µg/mL (≈ 3.66 µM)	1.56 µg/mL (≈ 3.66 µM)	1.56 µg/mL (≈ 3.66 µM)	12.5 µg/mL (≈ 29.3 µM)
C=C[C@@](C)(/C=C/c1ccc(OCCCN(CC)CC)cc1)CCC=C(C)C	102 µg/mL	3.12 µg/mL (≈ 8.46 µM)	3.12 µg/mL (≈ 8.46 µM)	> 100 µg/mL	3.12 µg/mL (≈ 8.46 µM)	–	–	–	–	–
C=C[C@@](C)(/C=C/c1ccc(OCCCN(C)C)cc1)CCC=C(C)C	88.5 µg/mL	6.25 µg/mL (≈ 18.3 µM)	6.25 µg/mL (≈ 18.3 µM)	> 100 µg/mL	6.25 µg/mL (≈ 18.3 µM)	–	–	–	–	–
C=C[C@@](C)(/C=C/c1ccc(OCCCCN(Cc2ccccn2)Cc2ccccn2)cc1)CCC=C(C)C	> 200 µg/mL	3.12 µg/mL (≈ 6.13 µM)	1.56 µg/mL (≈ 3.06 µM)	> 100 µg/mL	1.56 µg/mL (≈ 3.06 µM)	–	–	–	–	–
C=C[C@@](C)(/C=C/c1ccc(OCCCCN(C)C)cc1)CCC=C(C)C	41.7 µg/mL	1.56 µg/mL (≈ 4.39 µM)	3.12 µg/mL (≈ 8.79 µM)	50 µg/mL (≈ 141 µM)	1.56 µg/mL (≈ 4.39 µM)	–	–	–	–	–
C=C[C@@](C)(/C=C/c1ccc(OCCCCNCCSC)cc1)CCC=C(C)C	32.5 µg/mL	0.78 µg/mL (≈ 1.94 µM)	1.56 µg/mL (≈ 3.88 µM)	50 µg/mL (≈ 124 µM)	0.78 µg/mL (≈ 1.94 µM)	–	–	–	–	–

SMILES	HC50 at 1 h [1]	MIC (Staphylococcus aureus [2])	MIC (Staphylococcus aureus [3])	MIC (Escherichia coli)	MIC (Staphylococcus aureus [4])	MIC (Klebsiella pneumoniae [5])	MIC (Klebsiella pneumoniae [6])	MIC (Acinetobacter baumannii [7])	MIC (Acinetobacter baumannii [8])	MIC (Pseudomonas aeruginosa)
C=C[C@@](C)(/C=C/c1ccc(OCCCCCCCCN(CC)CC)cc1)CCC=C(C)C	83.5 µg/mL	3.12 µg/mL (≈ 7.11 µM)	1.56 µg/mL (≈ 3.55 µM)	> 100 µg/mL	1.56 µg/mL (≈ 3.55 µM)	–	–	–	–	–
CC[C@H](C)[C@H](NC(=O)CN)C(=O)NCC(=O)N[C@@H](C)C(=O)N[C@H](C(=O)N[C@@H](CC(C)C)C(=O)N[C@@H](CCCCN)C(=O)N[C@H](C(=O)N[C@@H](CC(C)C)C(=O)N[C@H](C(=O)N[C@H](C(=O)NCC(=O)N[C@@H](CC(C)C)C(=O)N1CCC[C@H]1C(=O)N[C@@H](C)C(=O)N[C@@H](CC(C)C)C(=O)N[C@H](C(=O)N[C@@H](CO)C(=O)N[C@@H](Cc1c[nH]c2ccccc12)C(=O)N[C@H](C(=O)N[C@@H](CCCCN)C(=O)N[C@@H](CCCNC(=N)N)C(=O)N[C@@H](CCCCN)C(=O)N[C@@H](CCCNC(=N)N)C(=O)N[C@@H](CCC(N)=O)C(=O)N[C@@H](CCC(N)=O)C(N)=O)[C@@H](C)CC)[C@@H](C)CC)[C@@H](C)O)[C@@H](C)O)C(C)C)C(C)C [MELITTIN]	–	–	–	–	–	6.25 µg/mL (≈ 2.2 µM)	6.25 µg/mL (≈ 2.2 µM)	3.12 µg/mL (≈ 1.1 µM)	3.12 µg/mL (≈ 1.1 µM)	–
C=C[C@@](C)(/C=C/c1ccc(OCCCCN2CCCC2)cc1)CCC=C(C)C	58.2 µg/mL	1.56 µg/mL (≈ 4.09 µM)	1.56 µg/mL (≈ 4.09 µM)	> 100 µg/mL	1.56 µg/mL (≈ 4.09 µM)	–	–	–	–	–
C=C[C@@](C)(/C=C/c1ccc(OCCCBr)cc1)CCC=C(C)C	> 200 µg/mL	> 50 µg/mL	> 50 µg/mL	> 100 µg/mL	> 50 µg/mL	–	–	–	–	–
C=C[C@@](C)(/C=C/c1ccc(OCCCCN2CCN(C)CC2)cc1)CCC=C(C)C	104 µg/mL	1.56 µg/mL (≈ 3.8 µM)	3.12 µg/mL (≈ 7.61 µM)	> 100 µg/mL	3.12 µg/mL (≈ 7.61 µM)	–	–	–	–	–
C=C[C@@](C)(/C=C/c1ccc(OCCCCNCCCCCCCCCC)cc1)CCC=C(C)C	> 200 µg/mL	50 µg/mL (≈ 107 µM)	50 µg/mL (≈ 107 µM)	> 100 µg/mL	12.5 µg/mL (≈ 26.7 µM)	–	–	–	–	–
C=C[C@@](C)(/C=C/c1ccc(OCCCCN(C)CCCNC)cc1)CCC=C(C)C	37.4 µg/mL	1.56 µg/mL (≈ 3.78 µM)	1.56 µg/mL (≈ 3.78 µM)	1.56 µg/mL (≈ 3.78 µM)	0.78 µg/mL (≈ 1.89 µM)	3.12 µg/mL (≈ 7.57 µM)	3.12 µg/mL (≈ 7.57 µM)	6.25 µg/mL (≈ 15.1 µM)	1.56 µg/mL (≈ 3.78 µM)	6.25 µg/mL (≈ 15.1 µM)
C=C[C@@](C)(/C=C/c1ccc(OCCCC[N+](C)(CCCC)CCCC)cc1)CCC=C(C)C.[I-]	40.6 µg/mL	1.56 µg/mL	0.39 µg/mL	12.5 µg/mL	0.78 µg/mL	–	–	–	–	–
C=C[C@@](C)(/C=C/c1ccc(OCCCN(CCCC)CCCC)cc1)CCC=C(C)C	> 200 µg/mL	> 50 µg/mL	> 50 µg/mL	> 100 µg/mL	> 50 µg/mL	–	–	–	–	–
C=C[C@@](C)(/C=C/c1ccc(OCCCCNCCCC)cc1)CCC=C(C)C	32.4 µg/mL	1.56 µg/mL (≈ 4.07 µM)	1.56 µg/mL (≈ 4.07 µM)	12.5 µg/mL (≈ 32.6 µM)	1.56 µg/mL (≈ 4.07 µM)	–	–	–	–	–
C=C[C@@](C)(/C=C/c1ccc(OCCCCCCCCCCN(CC)CC)cc1)CCC=C(C)C	> 200 µg/mL	12.5 µg/mL (≈ 26.7 µM)	3.13 µg/mL (≈ 6.68 µM)	> 100 µg/mL	3.12 µg/mL (≈ 6.68 µM)	–	–	–	–	–
C=C[C@@](C)(/C=C/c1ccc(OCCCC[N+](C)(CC)CC)cc1)CCC=C(C)C.[I-]	57 µg/mL	1.56 µg/mL	0.78 µg/mL	12.5 µg/mL	0.39 µg/mL	–	–	–	–	–
C=C[C@@](C)(/C=C/c1ccc(OCCCCN(CCCC)CCCC)cc1)CCC=C(C)C	> 200 µg/mL	> 50 µg/mL	> 50 µg/mL	> 100 µg/mL	> 50 µg/mL	–	–	–	–	–
C=C[C@@](C)(/C=C/c1ccc(OCCCCNCCCCCC)cc1)CCC=C(C)C	120 µg/mL	1.56 µg/mL (≈ 3.79 µM)	1.56 µg/mL (≈ 3.79 µM)	100 µg/mL (≈ 243 µM)	0.78 µg/mL (≈ 1.89 µM)	–	–	–	–	–
C=C[C@@](C)(/C=C/c1ccc(OCCCCBr)cc1)CCC=C(C)C	> 200 µg/mL	> 50 µg/mL	> 50 µg/mL	> 100 µg/mL	> 50 µg/mL	–	–	–	–	–
